Measured values as given in patent US4760078A, “Immunomodulator 1,2-dithiol-3-thione derivative composition, use method and process of producing the same” (priority 1986, dated 1988).
Like-named read-outs stand apart in the source and are kept apart here.

Legend:
[1] = cited from earlier work
mouse spleen cells [2] = assay: Action against blast formation reaction of mouse spleen cells (ConA-induced DNA synthesis, 3H-thymidine intake); assay type: cell-based, BALB/C mouse; details: ConA 2 μg/ml, read-out: Activity (relative activity, 3H-thymidine intake, control = 100)
[3] = system: spleen cells producing anti-SRBC antibody; assay: Antibody production-promoting action (PFC number against SRBC, Jerne's method); assay type: in vivo, ICR mice; details: oral, twice (day of immunization and next day), 3 days after immunization
Experimental: Antibody Production-Promoting Action
The action of the compound of the present invention with respect to the antibody production of mouse against sheep red blood cells (SRBC) was examined.
To tail veins of ICR mice (female, 7 weeks old, 4 mice in each group), 5×10^7 SRBC were injected to immunize the mice. The compound of the present invention suspended in 0.5% methyl cellulose solution was orally administered twice to the mice on the day of immunization and on the next day. Three days after immunization, the number of spleen cells producing anti-SRBC antibody (PFC number) was checked by Jerne's method (Science Vol. 140, p. 405 (1963)).
In Table 2, the activity is the relative PFC number when the PFC number of the control is 100.

rat EAE = assay: Action against experimental allergic encephalomyelitis (EAE) of rats; assay type: in vivo, Lewis rat; details: subcutaneous, 8 times; for Survival Rate: 50 days after inoculation, control 6/8; for Crisis Day (Mean): control 9.1 ± 0.6; for Clin. Score (Mean): score 0 to 5, control 1.0 ± 0.4, * p < 0.01
mouse spleen cells [4] = assay: Action against blast formation reaction of mouse spleen cells (ConA-induced DNA synthesis, 3H-thymidine intake); assay type: cell-based, BALB/C mouse; details: Experiment 1, 10^-4 M, ConA 2 μg/ml, read-out: Activity (relative activity, 3H-thymidine intake, control = 100)
Experimental: Action Against Blast Formation Reaction of Mouse Spleen Cells The action of the compound of the present invention against the DNA synthesis of mouse spleen cells, which synthesis is induced by Concanavalin A (hereinafter referred to as ConA for short) was examined. 1×10^5 spleen cells of BALB/C mouse (female, 10 weeks old) were incubated with 2 μg/ml of ConA and 10^-6, 10^-5, or 10^-4 M of the compound of the present invention in RPMI 1640 medium containing 10% […] at 37° C. in an atmosphere containing 5% CO2 for 48 hours. Subsequently, ^3 H-thymidine was added to the culture and then the culture was incubated for another 18 hours. The incubated cells were collected with a harvester and the intake of ^3 H-thymidine by the cells was determined using a scintillation counter. The activity in the table is relative activity when the activity of the control is 100.

immune system = details: published by the inventors, Pharmaceutical Society of Japan 1984; cited from earlier work
mice = assay: Acute toxicity (oral); assay type: in vivo, ddY mice; details: 300 mg/kg, 6 mice per group
From the text: Oral toxicity of the compound of the present invention was examined using mice.
The compound of the present invention was suspended in 0.5% solution of methyl cellulose and the suspension was orally administered to ddY mice (male, 7 weeks old, 6 mice per group). The conditions of the mice were observed and the number of deaths in 14 days from administration was checked.

c1ccc([C@H]2CN3CCSC3=N2)cc1 [levamisole]
side effects ([1]; clinical use, reported): vomiturition, eruption and hemotoxicity | most serious side effect ([1]; disappears upon stopping the administration): granulocytopenia

S=c1cc(C=CC=Cc2ccccc2)ss1 [Compound 1, 5-(4-phenyl-1,3-butadienyl)-1,2-dithiol-3-thione]
activity at 10 µM (mouse spleen cells [2]; Experiment 1, 10^-5 M): 281% | activity at 1 µM (mouse spleen cells [2]; Experiment 1, 10^-6 M): 250% | Activity (relative PFC number, control = 100) ([3]; 0.4 mg/kg): 258 | Activity (relative PFC number, control = 100) ([3]; 2.0 mg/kg): 149 | Survival Rate (rat EAE; 0.3 mg/kg/d): 8/8 | Crisis Day (Mean) (rat EAE; 0.3 mg/kg/d): 10.5 ± 0.9 | Clin. Score (Mean) (rat EAE; 0.3 mg/kg/d): 0.3 ± 0.1 | Survival Rate (rat EAE; 3 mg/kg/d): 8/8 | Crisis Day (Mean) (rat EAE; 3 mg/kg/d): 10.3 ± 0.7 | Clin. Score (Mean) (rat EAE; 3 mg/kg/d): 0.2 ± 0.1 | activity at 100 µM (mouse spleen cells [4]): 196%

Cc1ccc(C=CC=Cc2cc(=S)ss2)cc1 [Compound 5, 5-{4-(p-toluyl)-1,3-butadienyl}-1,2-dithiol-3-thione]
activity at 10 µM (mouse spleen cells [2]; Experiment 2, 10^-5 M): 228% | activity at 1 µM (mouse spleen cells [2]; Experiment 2, 10^-6 M): 130%

COc1ccc(C=CC=Cc2cc(=S)ss2)cc1 [Compound 3, 5-{4-(4-methoxyphenyl)-1,3-butadienyl}-1,2-dithiol-3-thione]
activity at 10 µM (mouse spleen cells [2]; Experiment 1, 10^-5 M): 338% | activity at 1 µM (mouse spleen cells [2]; Experiment 1, 10^-6 M): 175% | Activity (relative PFC number, control = 100) ([3]; 0.4 mg/kg): 117 | Activity (relative PFC number, control = 100) ([3]; 2.0 mg/kg): 186 | activity at 100 µM (mouse spleen cells [4]): 291%

O=C(O)CCCCC1CCSS1 (racemic) [Lipoic Acid, DL-thioctic acid, reference compound]
immunomodulating effect (immune system): excellent immunomodulating effect | activity at 10 µM (mouse spleen cells [2]; Experiment 1, 10^-5 M): 146% | activity at 1 µM (mouse spleen cells [2]; Experiment 1, 10^-6 M): 142% | activity at 10 µM (mouse spleen cells [2]; Experiment 2, 10^-5 M): 159% | activity at 1 µM (mouse spleen cells [2]; Experiment 2, 10^-6 M): 95% | number of deaths in 14 days from administration (mice): one mouse in 6 mice died | activity at 100 µM (mouse spleen cells [4]): 234%
